The assay deals with IRAK4 (Homo sapiens (Human), UniProt Q9NWZ3). The experiment in a line: IRAK4 Kinase Assay (IMAP fluorescence polarization). It counts as biochemical. The note with it: 0.5 nM GST tagged IRAK4, 100 μM ATP, 100 nM fluorescent peptide substrate RP7030, 30 minutes at 25° C. The procedure, abridged: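 GST-tagged IRAK4 (0.5 nM) phosphorylates 100 nM fluorescent peptide with 100 μM ATP in 10 mM Tris pH 7.2, 1 mM MgCl2, 1 mM DTT, 0.01% Tween 20 for 30 min at 25 °C. Phosphorylation read as IMAP nanoparticle-binding fluorescence polarization after stop reagent.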
Sequence of IRAK4 (Q9NWZ3 whole entry): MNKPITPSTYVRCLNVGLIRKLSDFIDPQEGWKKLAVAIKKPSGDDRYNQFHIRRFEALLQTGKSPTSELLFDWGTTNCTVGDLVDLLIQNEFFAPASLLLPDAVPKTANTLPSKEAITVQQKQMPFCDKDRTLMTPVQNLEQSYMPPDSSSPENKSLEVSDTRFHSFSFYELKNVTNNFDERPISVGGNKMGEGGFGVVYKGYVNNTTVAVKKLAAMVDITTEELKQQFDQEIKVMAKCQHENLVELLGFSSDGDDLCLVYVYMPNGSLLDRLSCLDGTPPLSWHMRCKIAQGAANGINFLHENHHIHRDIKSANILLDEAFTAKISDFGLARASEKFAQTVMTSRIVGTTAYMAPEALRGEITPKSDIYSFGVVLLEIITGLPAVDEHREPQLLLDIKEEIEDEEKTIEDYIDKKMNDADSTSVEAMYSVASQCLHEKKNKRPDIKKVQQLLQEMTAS
Usually IC50 stands for the midpoint of a concentration-inhibition curve. For the compound `Oc1cc(-c2ccc3ncnc(N[C@H]4CC[C@H](N5CCOCC5)CC4)c3c2)cnc1Cl` [Example 1-100, 2-chloro-5-(4-{[trans-4-(morpholin-4-yl)cyclohexyl]amino}quinazolin-6-yl)pyridin-3-ol], the IC50 was 1 nM.

For `Oc1cncc(-c2ccc3ncnc(N[C@H]4CC[C@H](N5CCC(F)(F)CC5)CC4)c3c2)c1` [Example 5-17, 5-(4-{[trans-4-(4,4-difluoropiperidin-1-yl)cyclohexyl]amino}quinazolin-6-yl)pyridin-3-ol], the IC50 is < 0.5 nM. As for `CNc1cc(-c2ccc3ncnc(N[C@H]4CC[C@H](N5CCOCC5)CC4)c3c2)cnc1F` [Example 2-32, 6-[6-fluoro-5-(methylamino)pyridin-3-yl]-N-[trans-4-(morpholin-4-yl)cyclohexyl]quinazolin-4-amine], the figure is 1 nM; as for `CNc1cc(-c2ccc3ncnc(N[C@H]4CC[C@H](N5C[C@@H](C)O[C@@H](C)C5)CC4)c3c2)cnc1F` [Example 5-26, N-{trans-4-[(2R,6S)-2,6-dimethylmorpholin-4-yl]cyclohexyl}-6-[6-fluoro-5-(methylamino)pyridin-3-yl]quinazolin-4-amine], 1 nM. As to `CNc1cc(-c2ccc3ncnc(N[C@H]4CC[C@H](N5CCO[C@H](C)C5)CC4)c3c2)cnc1F` [Example 5-30, 6-[6-fluoro-5-(methylamino)pyridin-3-yl]-N-{trans-4-[(2R)-2-methylmorpholin-4-yl]cyclohexyl}quinazolin-4-amine], it took 1 nM to reach half-maximal inhibition (IC50). The compound `c1ncc(-c2ccc3ncnc(N[C@H]4CC[C@H](N5CCOCC5)CC4)c3c2)cn1` [Example 1-47, N-[trans-4-(morpholin-4-yl)cyclohexyl]-6-(pyrimidin-5-yl)quinazolin-4-amine] returned a half-inhibitory concentration (IC50) of 3 nM.

Compound `Cc1c(-c2ccncc2)ccc2ncnc(N[C@H]3CC[C@H](N4CCOCC4)CC3)c12` [Example 1-78, 5-methyl-N-(trans-4-morpholin-4-ylcyclohexyl)-6-pyridin-4-ylquinazolin-4-amine] showed a concentration for half-maximal inhibition (IC50) of 433 nM. In turn, `COC1CN([C@H]2CC[C@H](Nc3ncnc4ccc(-c5cncc(O)c5)cc34)CC2)C1` [Example 5-2, 5-(4-{[trans-4-(3-methoxyazetidin-1-yl)cyclohexyl]amino}quinazolin-6-yl)pyridin-3-ol] gave an IC50 of 1 nM. As for `CN1CCOc2cc(-c3ccc4ncnc(N[C@H]5CC[C@H](N(C)C)CC5)c4c3)cnc21` [Example 1-57, trans-N,N-dimethyl-N′-[6-(4-methyl-3,4-dihydro-2H-pyrido[3,2-b][1,4]oxazin-7-yl)quinazolin-4-yl]cyclohexane-1,4-diamine], the figure is 6730 nM; as for `C[C@@H]1CN([C@H]2CC[C@H](Nc3ncnc4ccc(-c5cnc(F)c(N)c5)cc34)CC2)C[C@H](C)O1` [Example 5-19, 6-(5-amino-6-fluoropyridin-3-yl)-N-{trans-4-[(2R,6S)-2,6-dimethylmorpholin-4-yl]cyclohexyl}quinazolin-4-amine], 1 nM; as for `Cc1n[nH]c(C)c1-c1ccc2ncnc(N[C@H]3CC[C@H](N4CCOCC4)CC3)c2c1` [Example 2-24, 6-(3,5-dimethyl-1H-pyrazol-4-yl)-N-[trans-4-(morpholin-4-yl)cyclohexyl]quinazolin-4-amine], 104 nM.

`CN(C)[C@H]1CC[C@H](Nc2ncnc3ccc(-c4ccc5c(c4)OCCO5)cc23)CC1` [Example 1-49, trans-N′-[6-(2,3-dihydro-1,4-benzodioxin-6-yl)quinazolin-4-yl]-N,N-dimethylcyclohexane-1,4-diamine] had a concentration for half-maximal inhibition (IC50) of 161 nM.

In turn, `Oc1cc(-c2ccc3ncnc(N[C@H]4CC[C@H](N5CCOCC5)CC4)c3c2)ccn1` [Example 1-67, 4-{4-[(trans-4-morpholin-4-ylcyclohexyl)amino]quinazolin-6-yl}pyridin-2-ol] yielded an IC50 of 15 nM. Next, `Cc1ncc(-c2ccc3ncnc(N[C@H]4CC[C@H](N5CCOCC5)CC4)c3c2)cn1` [Example 1-89, 6-(2-methylpyrimidin-5-yl)-N-[trans-4-(morpholin-4-yl)cyclohexyl]quinazolin-4-amine]: 18 nM. In the case of `CS(=O)(=O)N1CCN([C@H]2CC[C@H](Nc3ncnc4ccc(-c5cnc(F)c(N)c5)cc34)CC2)CC1` [Example 5-20, 6-(5-amino-6-fluoropyridin-3-yl)-N-{trans-4-[4-(methylsulfonyl)piperazin-1-yl]cyclohexyl}quinazolin-4-amine], the IC50 turned out to be 4 nM.

For `FC(F)c1cncc(-c2ccc3ncnc(N[C@H]4CC[C@H](N5CCOCC5)CC4)c3c2)c1` [Example 2-35, 6-[5-(difluoromethyl)pyridin-3-yl]-N-[trans-4-(morpholin-4-yl)cyclohexyl]quinazolin-4-amine], it took 37 nM to reach half-maximal inhibition (IC50). With `Cn1nncc1-c1ccc2ncnc(N[C@H]3CC[C@H](N4CCOCC4)CC3)c2c1` [Example 2-15, 6-(1-methyl-1H-1,2,3-triazol-5-yl)-N-(trans-4-morpholin-4-ylcyclohexyl)quinazolin-4-amine], 152 nM corresponded to half-maximal inhibition (IC50). Next, `CN(C)[C@H]1CC[C@H](Nc2ncnc3ccc(-c4cc(F)cc(F)c4)cc23)CC1` [Example 1-62, trans-N′-[6-(3,5-difluorophenyl)quinazolin-4-yl]-N,N-dimethylcyclohexane-1,4-diamine]: 23 nM. Next, `CNc1cncc(-c2ccc3ncnc(N[C@H]4CC[C@H](N5CCN(S(C)(=O)=O)CC5)CC4)c3c2)c1` [Example 5-7, 6-[5-(methylamino)pyridin-3-yl]-N-{trans-4-[4-(methylsulfonyl)piperazin-1-yl]cyclohexyl}quinazolin-4-amine]: 8 nM; `COCCOc1cncc(-c2ccc3ncnc(N[C@H]4CC[C@H](N(C)C)CC4)c3c2)c1` [Example 1-40, trans-N′-{6-[5-(2-methoxyethoxy)pyridin-3-yl]quinazolin-4-yl}-N,N-dimethylcyclohexane-1,4-diamine]: 83 nM.

For `CN(C)[C@H]1CC[C@H](Nc2ncnc3ccc(-c4cncnc4)cc23)CC1` [Example 1-25, trans-N,N-dimethyl-N′-[6-(pyrimidin-5-yl)quinazolin-4-yl]cyclohexane-1,4-diamine], 3 nM corresponded to half-maximal inhibition (IC50). Next, `Cc1n[nH]cc1-c1ccc2ncnc(N[C@H]3CC[C@H](N4CCOCC4)CC3)c2c1` [Example 2-20, 6-(3-methyl-1H-pyrazol-4-yl)-N-[trans-4-(morpholin-4-yl)cyclohexyl]quinazolin-4-amine]: 22 nM; `Cn1cc(-c2ccc3ncnc(N[C@H]4CC[C@H](N5CCOCC5)CC4)c3c2)c(CO)n1` [Example 2-12, (1-methyl-4-{4-[(trans-4-morpholin-4-ylcyclohexyl)amino]quinazolin-6-yl}-1H-pyrazol-3-yl)methanol]: 261 nM; `Nc1cc(-c2ccc3ncnc(N[C@H]4CC[C@H](N5CCCC(CN6CCOCC6)C5)CC4)c3c2)cnc1F` (stereo partly drawn) [Example 5-21, 6-(5-amino-6-fluoropyridin-3-yl)-N-{trans-4-[3-(morpholin-4-ylmethyl)piperidin-1-yl]cyclohexyl}quinazolin-4-amine]: 2 nM. As for `Cc1cnccc1-c1ccc2ncnc(N[C@H]3CC[C@H](N(C)C)CC3)c2c1` [Example 1-21, trans-N,N-dimethyl-N′-[6-(3-methylpyridin-4-yl)quinazolin-4-yl]cyclohexane-1,4-diamine], the figure is 155 nM.

For the origin of these results see patent publication US9969749B2, “Inhibitors of IRAK4 activity” (MERCK SHARP & DOHME CORP., priority 2014, dated 2018).
